What was measured:
neprilysin (NEP) = test: NEP (R&D Systems) in 50 mM Tris, 0.05% Brij-35, pH 9.0; details: 37 °C, up to 24 h
VIP receptor 2 (VPAC2) = biological target: T1, VIP receptor 2 (VPAC2) (Homo sapiens, UniProt P41587); test: cAMP assay, COS-7 cells transiently expressing VPAC2; type: cell-based; details: for % receptor activation at 1µM agonist: VPAC2 + VIP, Suppl. fig 5a source data; for EC50: log(EC50) VPAC 2 + VIP, log10 of EC50, COS-7 cells, cAMP, Hill = 1, top constrained to 100%
T1 sequence (P41587 24-438): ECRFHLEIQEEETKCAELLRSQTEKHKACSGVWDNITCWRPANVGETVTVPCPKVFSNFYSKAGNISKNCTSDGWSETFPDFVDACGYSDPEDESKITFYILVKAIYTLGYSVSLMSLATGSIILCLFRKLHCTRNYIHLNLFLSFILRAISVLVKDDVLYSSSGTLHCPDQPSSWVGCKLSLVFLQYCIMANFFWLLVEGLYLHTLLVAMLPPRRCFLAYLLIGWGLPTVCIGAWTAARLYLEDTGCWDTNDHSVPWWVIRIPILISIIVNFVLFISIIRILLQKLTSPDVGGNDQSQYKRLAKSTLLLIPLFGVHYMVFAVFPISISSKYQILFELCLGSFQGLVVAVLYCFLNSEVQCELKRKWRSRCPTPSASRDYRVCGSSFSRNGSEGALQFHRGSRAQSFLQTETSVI

VIP receptor 1 (VPAC1) = biological target: T2, VIP receptor 1 (VPAC1) (Homo sapiens, UniProt P32241); test: cAMP assay, COS-7 cells transiently expressing VPAC1; type: cell-based; details: for EC50: log(EC50) VPAC1 + VIP, log10 of EC50, COS-7 cells, cAMP, Hill = 1, top constrained to 100%; for % receptor activation at 1µM agonist: VPAC1 + VIP, Suppl. fig 5a source data
T2 sequence (P32241 31-457): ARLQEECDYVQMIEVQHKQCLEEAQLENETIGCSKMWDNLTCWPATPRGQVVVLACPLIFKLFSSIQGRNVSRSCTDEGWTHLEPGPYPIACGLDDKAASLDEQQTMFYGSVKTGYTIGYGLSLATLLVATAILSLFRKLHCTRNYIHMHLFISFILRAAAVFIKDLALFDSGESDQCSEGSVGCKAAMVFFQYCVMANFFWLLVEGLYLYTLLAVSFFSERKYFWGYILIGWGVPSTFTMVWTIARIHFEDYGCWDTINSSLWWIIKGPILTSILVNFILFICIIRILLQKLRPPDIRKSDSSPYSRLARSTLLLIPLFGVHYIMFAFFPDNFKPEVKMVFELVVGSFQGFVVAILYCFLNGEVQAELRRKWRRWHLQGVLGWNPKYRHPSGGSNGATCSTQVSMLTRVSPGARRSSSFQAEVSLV

[1] = independent experiment 1, duplicate determinations
[2] = independent experiment 2, duplicate determinations
[3] = independent experiment 3, duplicate determinations

Row | Compound | Efficacy raw data for Glucagon-receptors, VPAC2 + VIP (VIP receptor 2 (VPAC2); replicate 1) | Efficacy raw data for Glucagon-receptors, VPAC2 + VIP (VIP receptor 2 (VPAC2); replicate 2) | Efficacy raw data for Glucagon-receptors, VPAC2 + VIP (VIP receptor 2 (VPAC2); replicate 3) | % receptor activation at 1µM agonist (VIP receptor 2 (VPAC2); replicate 1) | % receptor activation at 1µM agonist (VIP receptor 2 (VPAC2); replicate 2) | % receptor activation at 1µM agonist (VIP receptor 2 (VPAC2); replicate 3) | % receptor activation at 1µM agonist (VIP receptor 2 (VPAC2); replicate 4) | % receptor activation at 1µM agonist (VIP receptor 2 (VPAC2); replicate 5) | % receptor activation at 1µM agonist (VIP receptor 2 (VPAC2); replicate 6) | EC50 (VIP receptor 2 (VPAC2); [1]) | EC50 (VIP receptor 2 (VPAC2); [2]) | EC50 (VIP receptor 2 (VPAC2); [3]) | EC50 (VIP receptor 1 (VPAC1); [1]) | EC50 (VIP receptor 1 (VPAC1); [2]) | EC50 (VIP receptor 1 (VPAC1); [3]) | Efficacy raw data for Glucagon-receptors, VPAC1 + VIP (VIP receptor 1 (VPAC1); replicate 1) | Efficacy raw data for Glucagon-receptors, VPAC1 + VIP (VIP receptor 1 (VPAC1); replicate 2) | Efficacy raw data for Glucagon-receptors, VPAC1 + VIP (VIP receptor 1 (VPAC1); replicate 3) | other results
1 | GWTLNSAGYLLGPHAVGNHRSFSDKNGLTS [Galanin T] |  |  |  |  |  |  |  |  |  |  |  |  |  |  |  |  |  |  | not cleaved (neprilysin (NEP)): −: not susceptible to degradation
2 | CC[C@H](C)[C@H](NC(=O)[C@H](CO)NC(=O)[C@H](CC(N)=O)NC(=O)[C@H](CC(C)C)NC(=O)[C@H](Cc1ccc(O)cc1)NC(=O)[C@H](CCCCN)NC(=O)[C@H](CCCCN)NC(=O)[C@@H](NC(=O)[C@H](C)NC(=O)[C@H](CCSC)NC(=O)[C@H](CCC(N)=O)NC(=O)[C@H](CCCCN)NC(=O)[C@H](CCCNC(=N)N)NC(=O)[C@H](CC(C)C)NC(=O)[C@H](CCCNC(=N)N)NC(=O)[C@@H](NC(=O)[C@H](Cc1ccc(O)cc1)NC(=O)[C@H](CC(N)=O)NC(=O)[C@H](CC(=O)O)NC(=O)[C@@H](NC(=O)[C@H](Cc1ccccc1)NC(=O)[C@@H](NC(=O)[C@H](C)NC(=O)[C@H](CC(=O)O)NC(=O)[C@H](CO)NC(=O)[C@@H](N)Cc1c[nH]cn1)C(C)C)[C@@H](C)O)[C@@H](C)O)C(C)C)C(=O)N[C@@H](CC(C)C)C(=O)N[C@@H](CC(N)=O)C(N)=O [VIP, vasoactive intestinal polypeptide, reference compound] | 99.97 | 100 | 100 |  |  |  |  |  |  |  |  |  |  |  |  |  |  |  | 
3 | CC[C@H](C)[C@H](NC(=O)[C@H](CO)NC(=O)[C@H](CC(N)=O)NC(=O)[C@H](CC(C)C)NC(=O)[C@H](Cc1ccc(O)cc1)NC(=O)[C@H](CCCCN)NC(=O)[C@H](CCCCN)NC(=O)[C@@H](NC(=O)[C@H](C)NC(=O)[C@H](CCSC)NC(=O)[C@H](CCC(N)=O)NC(=O)[C@H](CCCCN)NC(=O)[C@H](CCCNC(=N)N)NC(=O)[C@H](CC(C)C)NC(=O)[C@H](CCCNC(=N)N)NC(=O)[C@@H](NC(=O)[C@H](Cc1ccc(O)cc1)NC(=O)[C@H](CC(N)=O)NC(=O)[C@H](CC(=O)O)NC(=O)[C@@H](NC(=O)[C@H](Cc1ccccc1)NC(=O)[C@@H](NC(=O)[C@H](C)NC(=O)[C@H](CC(=O)O)NC(=O)[C@H](CO)NC(=O)[C@@H](N)Cc1c[nH]cn1)C(C)C)[C@@H](C)O[C@H]1O[C@H](CO)[C@H](O)[C@H](O[C@@H]2O[C@H](CO)[C@H](O)[C@H](O[C@]3(C(=O)O)C[C@H](O)[C@@H](NC(C)=O)[C@H]([C@H](O)[C@H](O)CO)O3)[C@H]2O)[C@H]1NC(C)=O)[C@@H](C)O)C(C)C)C(=O)N[C@@H](CC(C)C)C(=O)N[C@@H](CC(N)=O)C(N)=O [VIP ST] | 72.87 |  | 74.68 | 68.0% | 68.9% | 66.1% | 69.7% | 54.2% | 49.2% | 378 nM | 596 nM | 946 nM | 34.1 nM | 116 nM | 162 nM | 91.02 | 112.4 | 93.56 | 
4 | CC[C@H](C)[C@H](NC(=O)[C@H](CO)NC(=O)[C@H](CC(N)=O)NC(=O)[C@H](CC(C)C)NC(=O)[C@H](Cc1ccc(O)cc1)NC(=O)[C@H](CCCCN)NC(=O)[C@H](CCCCN)NC(=O)[C@@H](NC(=O)[C@H](C)NC(=O)[C@H](CCSC)NC(=O)[C@H](CCC(N)=O)NC(=O)[C@H](CCCCN)NC(=O)[C@H](CCCNC(=N)N)NC(=O)[C@H](CC(C)C)NC(=O)[C@H](CCCNC(=N)N)NC(=O)[C@@H](NC(=O)[C@H](Cc1ccc(O)cc1)NC(=O)[C@H](CC(N)=O)NC(=O)[C@H](CC(=O)O)NC(=O)[C@@H](NC(=O)[C@H](Cc1ccccc1)NC(=O)[C@@H](NC(=O)[C@H](C)NC(=O)[C@H](CC(=O)O)NC(=O)[C@H](CO)NC(=O)[C@@H](N)Cc1c[nH]cn1)C(C)C)[C@@H](C)O)[C@@H](C)O)C(C)C)C(=O)N[C@@H](CC(C)C)C(=O)N[C@@H](CC(N)=O)C(N)=O [VIP non-glycosylated] |  |  |  | 79.5% | 82.6% | 101.8% | 110.5% | 97.7% | 107.3% |  |  |  |  |  |  |  |  |  | 
5 | CC[C@H](C)[C@H](NC(=O)[C@H](CO)NC(=O)[C@H](CC(N)=O)NC(=O)[C@H](CC(C)C)NC(=O)[C@H](Cc1ccc(O)cc1)NC(=O)[C@H](CCCCN)NC(=O)[C@H](CCCCN)NC(=O)[C@@H](NC(=O)[C@H](C)NC(=O)[C@H](CCSC)NC(=O)[C@H](CCC(N)=O)NC(=O)[C@H](CCCCN)NC(=O)[C@H](CCCNC(=N)N)NC(=O)[C@H](CC(C)C)NC(=O)[C@H](CCCNC(=N)N)NC(=O)[C@@H](NC(=O)[C@H](Cc1ccc(O)cc1)NC(=O)[C@H](CC(N)=O)NC(=O)[C@H](CC(=O)O)NC(=O)[C@@H](NC(=O)[C@H](Cc1ccccc1)NC(=O)[C@@H](NC(=O)[C@H](C)NC(=O)[C@H](CC(=O)O)NC(=O)[C@H](CO)NC(=O)[C@@H](N)Cc1c[nH]cn1)C(C)C)[C@@H](C)O[C@H]1O[C@H](CO)[C@H](O)[C@H](O)[C@H]1NC(C)=O)[C@@H](C)O)C(C)C)C(=O)N[C@@H](CC(C)C)C(=O)N[C@@H](CC(N)=O)C(N)=O [VIP Tn] | 74.75 | 186 | 78.02 | 70.4% | 67.4% | 67.0% | 57.3% | 63.7% | 60.1% | 421 nM | 656 nM | 577 nM | 42.6 nM | 207 nM | 101 nM | 102 | 111.1 | 105.8 | % receptor activation at 1µM agonist (VIP receptor 1 (VPAC1); replicate 4): 82.0%
6 | CC[C@H](C)[C@H](NC(=O)[C@H](CO)NC(=O)[C@H](CC(N)=O)NC(=O)[C@H](CC(C)C)NC(=O)[C@H](Cc1ccc(O)cc1)NC(=O)[C@H](CCCCN)NC(=O)[C@H](CCCCN)NC(=O)[C@@H](NC(=O)[C@H](C)NC(=O)[C@H](CCSC)NC(=O)[C@H](CCC(N)=O)NC(=O)[C@H](CCCCN)NC(=O)[C@H](CCCNC(=N)N)NC(=O)[C@H](CC(C)C)NC(=O)[C@H](CCCNC(=N)N)NC(=O)[C@@H](NC(=O)[C@H](Cc1ccc(O)cc1)NC(=O)[C@H](CC(N)=O)NC(=O)[C@H](CC(=O)O)NC(=O)[C@@H](NC(=O)[C@H](Cc1ccccc1)NC(=O)[C@@H](NC(=O)[C@H](C)NC(=O)[C@H](CC(=O)O)NC(=O)[C@H](CO)NC(=O)[C@@H](N)Cc1c[nH]cn1)C(C)C)[C@@H](C)O[C@H]1O[C@H](CO)[C@H](O)[C@H](O[C@@H]2O[C@H](CO)[C@H](O)[C@H](O)[C@H]2O)[C@H]1NC(C)=O)[C@@H](C)O)C(C)C)C(=O)N[C@@H](CC(C)C)C(=O)N[C@@H](CC(N)=O)C(N)=O [VIP T] | 75.53 | 106.2 | 67.09 | 72.7% | 72.4% | 74.8% | 68.0% | 58.9% | 52.3% | 202 nM | 422 nM | 718 nM | 18.9 nM | 88.7 nM | 45.8 nM | 95.97 | 106.4 | 107.3 | % receptor activation at 1µM agonist (VIP receptor 1 (VPAC1); replicate 5): 104.2%

From publication PMC7441158 (Nature Communications, 2020)
